Experimental data taken from ChEMBL document CHEMBL5331084, “Structure-based lead optimization of peptide-based vinyl methyl ketones as SARS-CoV-2 main protease inhibitors” (Eur J Med Chem, 2023).
Active and inactive are the calls of the source. The rule behind the calls is not given here.

Columns and labels:
[1] = target: Replicase polyprotein 1ab (Severe acute respiratory syndrome coronavirus 2, UniProt P0DTD1); test: Inhibition of SARS-CoV-2 MPro using Dabcyl-KTSAVLQSGFRKME-Edans as substrate assessed as inhibition constant measured for 10 mins by FRET assay
Huh-7 = type: toxicity, cell-based; settings: human, huh-7, 24 h
[2] = target: Genome polyprotein (dengue virus type 2) (UniProt P29990); test: Inhibition of Dengue virus NS2B-NS3 protease Boc-GRR-AMC as substrate at 100 uM measured for 10 mins by fluorescence assay
Cathepsin B = Cathepsin B (Homo sapiens, UniProt P07858); test: Inhibition of human Cathepsin B using Cbz-Phe-Arg-7-amino-4-methylcoumarin as substrate assessed as inhibition constant measured for 10 mins by fluorescence assay
[3] = target: Replicase polyprotein 1ab (Severe acute respiratory syndrome coronavirus 2) (UniProt P0DTD1); test: Covalent irreversible inhibition of SARS-CoV-2 MPro using Dabcyl-KTSAVLQSGFRKME-Edans as substrate assessed as reduction in enzyme recovery at 5 fold IC50 preincubated for 60 mins followed by dilution to 1 fold IC50 and substrate addition by fluorescence based assay
[4] = target: Replicase polyprotein 1ab (Severe acute respiratory syndrome coronavirus 2) (UniProt P0DTD1); test: Inhibition of SARS-CoV-2 PLpro using Z-RLRGG-AMC acetate as substrate at 100 uM measured for 10 mins by fluorescence assay
Procathepsin L [5] = target: T1, Procathepsin L (Homo sapiens, UniProt P07711); test: Inhibition of human Cathepsin L using Cbz-Phe-Arg-AMC as substrate assessed as inhibition constant measured for 10 mins by fluorescence assay
Target sequence in this assay (P07711 whole entry): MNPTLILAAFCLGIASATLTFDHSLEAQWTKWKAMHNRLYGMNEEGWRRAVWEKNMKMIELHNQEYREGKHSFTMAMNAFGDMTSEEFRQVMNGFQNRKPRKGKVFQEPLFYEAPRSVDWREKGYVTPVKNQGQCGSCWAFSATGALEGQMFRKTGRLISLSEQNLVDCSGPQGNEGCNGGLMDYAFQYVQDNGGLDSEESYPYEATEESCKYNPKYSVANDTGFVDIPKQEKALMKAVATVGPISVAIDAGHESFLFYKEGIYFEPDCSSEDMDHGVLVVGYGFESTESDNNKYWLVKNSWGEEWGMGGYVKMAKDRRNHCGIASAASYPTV

Procathepsin L [6] = target: T1, Procathepsin L; test: Covalent irreversible inhibition of human Cathepsin L using Cbz-Phe-Arg-AMC as substrate assessed as reduction in enzyme recovery at 5 fold IC50 preincubated for 60 mins followed by dilution to 1 fold IC50 and substrate addition by fluorescence based assay
Target sequence in this assay (P07711 114-333 limits assumed): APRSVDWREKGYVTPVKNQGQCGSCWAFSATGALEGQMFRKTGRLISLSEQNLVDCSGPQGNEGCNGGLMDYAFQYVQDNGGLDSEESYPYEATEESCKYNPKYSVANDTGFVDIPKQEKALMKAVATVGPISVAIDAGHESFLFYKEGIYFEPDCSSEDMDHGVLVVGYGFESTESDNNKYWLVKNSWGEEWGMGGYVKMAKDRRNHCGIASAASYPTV

[7] = target: Replicase polyprotein 1ab (Severe acute respiratory syndrome coronavirus 2) (UniProt P0DTD1); test: Covalent irreversible inhibition of SARS-CoV-2 MPro using Dabcyl-KTSAVLQSGFRKME-Edans as substrate assessed as reduction in enzyme recovery at 10 fold IC50 preincubated for 60 mins followed by dialysis for 25 hrs further incubated with substrate and measured over 10 mins by fluorescence based assay; settings: time 1570.0 min

Structure (SMILES)	Ki [1] [nM]	CC50 (Huh-7) [nM]	inhibition [2]	Ki (Cathepsin B) [nM]	inhibition [3]	inhibition [4]	Ki (Procathepsin L [5]) [nM]	inhibition (Procathepsin L [6])	inhibition [7]
CCC[C@H](NC(=O)OCc1ccccc1)C(=O)N[C@H](/C=C/C(C)=O)C[C@@H]1CCNC1=O	1770	–	–	–	–	–	–	–	–
CC(=O)/C=C/[C@H](C[C@@H]1CCNC1=O)NC(=O)[C@H](CC(C)(C)C)NC(=O)OCc1ccccc1	416	–	–	–	–	–	–	–	–
CCCC[C@H](NC(=O)OCc1ccccc1)C(=O)N[C@H](/C=C/C(C)=O)C[C@@H]1CCNC1=O	260	60900	inactive	11100	Active	inactive	1920	Active	–
CC(=O)/C=C/[C@H](C[C@@H]1CCNC1=O)NC(=O)[C@H](CC1CC1)NC(=O)OCc1ccccc1	252	100000	inactive	7880	Active	inactive	3380	Active	Active
CC(=O)/C=C/[C@H](C[C@@H]1CCNC1=O)NC(=O)[C@H](CC1CCCCC1)NC(=O)OCc1ccccc1	184	14500	inactive	14400	Active	inactive	252	Active	Active
CC(=O)/C=C/[C@H](C[C@@H]1CCNC1=O)NC(=O)[C@H](CC(C)C)NC(=O)OCc1ccccc1	386	–	–	–	–	–	–	–	–
